Legend:
TNF-alpha = test: MSU-induced TNF-alpha in knee joint tissue (multiplex microassay); assay type: in vivo, mouse; settings: 2,4-D 100 mg/kg, CLC 1 mg/kg, DEX 0.5 mg/kg
Description: Mice (six per group) were treated with 2,4-D (100 mg/kg or 20 mg/kg, i.p.), CLC (1 mg/kg or 0.2 mg/kg, i.p.), DEX (0.5 mg/kg or 0.1 mg/kg, i.p.), or vehicle (20% polyoxyethylenesorbitan monooleate (Tween 80) plus PBS) 30 min before intra-articular stimulus with MSU (100 μg/10 μL, i.a.). Six mice with intra-articular injection with PBS alone served as a negative control.
Induction of MSU-Induced Knee Joint Inflammation. Male ICR (CD-1) mice (35-45 g, 10-12 weeks) were purchased from VitalRiver Inc (Beijing, China) and were kept in an animal care facility under controlled temperature of 21±1° C., humidity, and on a light/dark cycle, with ad libitum access to water and standard laboratory chow diet. Animal care and handling procedures were approved by the Animal Ethics Committee of GZUCM (Guangzhou University of Chinese Medicine). All efforts were made to minimize animal suffering and to reduce the number of animals used. Joint inflammation was induced by the intra-articular (i.a.) administration of MSU (200 μg/20 μl) into the right and left knee joints of mice under inhaled 3% isoflurane anesthesia. Control animals received an injection (i.a.) of sterile PBS (20 μL).
Cytokine Measurement. Mice were anesthetized and sacrificed. Knee joints were collected and frozen in liquid nitrogen. Samples were then homogenized in 500 μl of buffer containing protease inhibitors, centrifuged (3600 rpm, 4° C., 15 min) and supernatants were used to determine Th1/Th2/Th17 cytokine levels using a multiplex microassay (Qantibody® mouse TH17 Array 1 kit, Cat. No.: QAM-TH17-1; RayBiotech, Norcross, GA). Results were expressed as picograms (pg) of cytokine/mg of tissue.
Statistical Analysis. […] For in vitro experiments, microassays were performed in quadruplicate. p<0.05 was considered significant (*p<0.05, **p<0.01, ***p<0.001).

IL-1β, IL6 and TNFalpha = test: Endometriosis mouse model, cytokines in cell-free peritoneal lavage (ELISA); assay type: in vivo; settings: 50 mg/kg/day, 5 times a week, 6 weeks
Description: Experimental design. Balb/C female mice (10 weeks old) were habituated for 3 days to take a jelly containing (group EDT+2,4D) or not (groups No EDT and EDT+Vehicle) the compound. Surgical implantation of endometrial tissue from syngenic female in peritoneum, was performed at day 0 for groups EDT+Vehicle and EDT+2,4D. […] The vehicle or treatment was then given 5 times a week (50 mg/kg/day) during 6 weeks. Mice were then sacrificed and the peritoneal inflammation was assessed. All the details of the protocol are depicted in FIG. 27. Cytokine measurement in cell-free peritoneal lavage. After mice were euthanized, 5 mL of PBS was injected into the peritoneal cavity and the diluted peritoneal fluid containing the cells was then retrieved. […] Cytokine concentration was assessed by ELISA kit in the peritoneal fluid (ThermoFisher, Mouse IL-1β, IL6 and TNFalpha Uncoated ELISA). […] The optical density was read with the Clariostar Plus Microplate Reader (BMG LABTECH), through the Clario software. Concentrations were calculated from a standard curve according to the manufacturer's protocol. Phenotypic study of immune cells from the peritoneal cavity assessed by flow cytometry. The pelleted peritoneal cells were resuspended in PBS-2% FBS and counted. […] All data were collected on LSR Fortessa flow cytometer (BD Bioscience, USA) and analyzed with FlowJo software. […]

IL-23 = IL-23 production (ELISA of supernatant) in LPS-stimulated THP-1 cell culture, Examples 1 and 8; assay type: cell-based, human
Description: The THP-1 cell line (TIB-202) was obtained from the American Type Culture Collection (ATCC, USA), grown in RPMI 1640 culture medium (Gibco) supplemented with 10% fetal bovine serum (Gibco, UK), 50 U/mL penicillin-streptomycin (Gibco), and 0.05 mM 2-Mercaptoethanol (Gibco). Cultured cells were plated into culture plates in appropriate volumes with a cell density of 500,000 cells/mL.
PCR was performed in duplicate using SYBR Green qPCR master mix (Takara Biomedical Technology Co., Ltd, Dalian, China) on an ABI 7500 Real-Time PCR System (Thermo, USA). The cycling program was as follows: denaturation at 95° C. for 15 s, 40 cycles of 95° C. for 15 s and extension at 60° C. for 60 s, followed by melt curve generation. The ΔΔCT method was used to quantify relative mRNA levels as described in User Bulletin #2 for the ABI PRISM 7700 Sequence Detection System (Applied Biosystems, 2001). The primer sequences used in this study are 5′-[…]-3′ (forward), 5′-[…]-3′ (reverse) for human IL-23p19 (SEQ ID NOs: 4 and 5, respectively); and 5′-ACAGTCCATGCCATCACTG-3′ (forward) and 5′-AGTAGAGGCAGGGATGATG-3′ for human GAPDH as a reference (SEQ ID NOs: 6 and 7, respectively). 24 hours after culture and treatments, supernatants were collected and IL-23 levels measured using the IL-23 Human Uncoated ELISA Kit (ThermoFisher Scientific Inc., USA) according to the manufacturer's instructions. A Varioskan LUX microplate reader (Thermo Fisher, USA) was used for the assay and 4-parameter logistic regression was used for data analysis. Two duplicates per sample were performed and results were averaged.
The anti-IL-23 activity of 2,4-D was compared with the commercially prescribed nonsteroidal anti-inflammatory drugs (NSAIDs:[…], Ibuprofen, and Aspirin) in the LPS-stimulated THP-1 cell culture system described above (Example 1)).

[1] = tested on: cell surface markers CD80, Ly6C, CD206, CXCR4, CCR2; test: Endometriosis mouse model, cell surface marker expression of peritoneal immune cells (flow cytometry); assay type: in vivo; settings: 50 mg/kg/day, 5 times a week, 6 weeks
Description: Experimental design. Balb/C female mice (10 weeks old) were habituated for 3 days to take a jelly containing (group EDT+2,4D) or not (groups No EDT and EDT+Vehicle) the compound. Surgical implantation of endometrial tissue from syngenic female in peritoneum, was performed at day 0 for groups EDT+Vehicle and EDT+2,4D. […] The vehicle or treatment was then given 5 times a week (50 mg/kg/day) during 6 weeks. Mice were then sacrificed and the peritoneal inflammation was assessed. All the details of the protocol are depicted in FIG. 27. Cytokine measurement in cell-free peritoneal lavage. After mice were euthanized, 5 mL of PBS was injected into the peritoneal cavity and the diluted peritoneal fluid containing the cells was then retrieved. The cells were pelleted by centrifugation at 500×g 4° C. and the supernatant (cell-free peritoneal fluid) was frozen at −80° C. for subsequent cytokine concentration measurement by ELISA. Cytokine concentration was assessed by ELISA kit in the peritoneal fluid (ThermoFisher, Mouse IL-1β, IL6 and TNFalpha Uncoated ELISA). […] The optical density was read with the Clariostar Plus Microplate Reader (BMG LABTECH), through the Clario software. Concentrations were calculated from a standard curve according to the manufacturer's protocol. Phenotypic study of immune cells from the peritoneal cavity assessed by flow cytometry. The pelleted peritoneal cells were resuspended in PBS-2% FBS and counted. One million cells were stained with the following fluorophore-conjugated antibodies purchased from BioLegend: CD45 BV510, CD11b APC-Cy7, CD11c PE, F4/80 BV711, CD80 PE Cy5, CD206 AF647, Ly-6C, PE-Cy7, CCR2 BV786 et CXCR4 BV421, CD45R/B220 PE Texas-Red, CD3E FITC, NK1.1 BV605 and CD69 PerCP-Cy5.5, Zombie-UV. Cells were incubated 20 min in the dark at 4° C., washed with PBS-2% FBS, and were fixed with paraformaldehyde 4% in 5 mL round-bottom polystyrene tubes (Falcon™ 352054). Compensation was adjusted with Ultracomp beads (ThermoFisher). All the antibodies were diluted at 1/200. All data were collected on LSR Fortessa flow cytometer (BD Bioscience, USA) and analyzed with FlowJo software. Statistical analysis. Outlier values farther than 2 standard deviation from the mean were not taken into account. Kruskal Wallis non-parametric test followed by Dunn's multiple comparisons test were performed for cytokines, One-Way Anova with Tukey's multiple comparisons test for flow cytometry data. *p<0.05, **p<0.01, ***p<0.001.

COc1cc(O)c(OC)c(O)c1C(=O)/C=C/c1ccccc1 [2,4-D, 2′,4′-dihydroxy-3′,6′-dimethoxychalcone]
decrease of TNF-alpha in knee joint tissue (TNF-alpha): 1.9 fold
concentration of IL1-β, IL-6 and TNF-α in peritoneal lavage (IL-1β, IL6 and TNFalpha): tended to normalize
decrease of IL-23 detected in culture supernatant (IL-23; LPS-stimulated THP-1, 24 h): more than 90%
inhibition in IL-23 production/release in supernatant (IL-23; LPS-stimulated THP-1, Example 8): 5 to 10 fold
concentration of maximum inhibition of IL-23 cytokine production (IL-23; LPS-stimulated THP-1 cell culture): 20 µg/mL
CCR2 [1]: significantly reduced
CXCR4 [1]: tended to decrease
Ly6C pro-inflammatory marker [1]: tended to decrease
anti-inflammatory CD206 marker [1]: did not reduce

Source: patent US20240335395A1, “COMPOSITIONS AND METHODS FOR PREVENTING AND/OR TREATING DISEASE ASSOCIATED WITH IL-23 EXPRESSION” (ALLSPIM, priority 2021, published 2024)
